In general, IC50 refers to the point on the concentration scale where inhibition reaches its midpoint.

Like-named read-outs stand apart in the source and are kept apart here.

The source of these data is patent US11878973B2, “Bicyclic compounds and their uses” (NOVARTIS AG, priority 2021, dated 2024).

The test system of assay [1] is SW48 xenografts. As to conditions: 240 mg/kg qd oral.
The target of assay [2] is WRN helicase (Homo sapiens (Human), UniProt Q14191). Nature of the assay: In vitro enzymatic activity assay on WRN helicase (DNA dependent ATPase assay, ADP-Glo). The format is biochemical. As to conditions: geometric means of at least 2 determinations; read-out: WRN ATPase Activity (IC50). In a few lines:
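The WRN helicase core (aa N517-P1238), 10 nM, hydrolysed 300 µM ATP in the presence of 0.2 nM FLAP26 DNA (Tris pH 7.5, 2 mM MgCl2, 50 mM NaCl) for 30 min at room temperature. ADP formed was quantified by ADP-Glo luminescence.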

For assay [3], the system named is SW48 cells. Description: Proliferation assay SW48 (CellTiterGlo, 96 hours). In general terms: In ATP-based viability assays light output follows the ATP content of the culture.
In assay [4] the test system is DLD1-WRN-KO cells. Description: Proliferation assay DLD1-WRN-KO (CellTiterGlo, 96 hours; off-target effects). As to conditions: read-out: Proliferation Assay DLD1-WRN-KO (GI50).
Setting [5] is: Homo sapiens, SW48, read-out: Proliferation Assay SW48 (GI50).

Chain of WRN helicase (Q14191 517-1238): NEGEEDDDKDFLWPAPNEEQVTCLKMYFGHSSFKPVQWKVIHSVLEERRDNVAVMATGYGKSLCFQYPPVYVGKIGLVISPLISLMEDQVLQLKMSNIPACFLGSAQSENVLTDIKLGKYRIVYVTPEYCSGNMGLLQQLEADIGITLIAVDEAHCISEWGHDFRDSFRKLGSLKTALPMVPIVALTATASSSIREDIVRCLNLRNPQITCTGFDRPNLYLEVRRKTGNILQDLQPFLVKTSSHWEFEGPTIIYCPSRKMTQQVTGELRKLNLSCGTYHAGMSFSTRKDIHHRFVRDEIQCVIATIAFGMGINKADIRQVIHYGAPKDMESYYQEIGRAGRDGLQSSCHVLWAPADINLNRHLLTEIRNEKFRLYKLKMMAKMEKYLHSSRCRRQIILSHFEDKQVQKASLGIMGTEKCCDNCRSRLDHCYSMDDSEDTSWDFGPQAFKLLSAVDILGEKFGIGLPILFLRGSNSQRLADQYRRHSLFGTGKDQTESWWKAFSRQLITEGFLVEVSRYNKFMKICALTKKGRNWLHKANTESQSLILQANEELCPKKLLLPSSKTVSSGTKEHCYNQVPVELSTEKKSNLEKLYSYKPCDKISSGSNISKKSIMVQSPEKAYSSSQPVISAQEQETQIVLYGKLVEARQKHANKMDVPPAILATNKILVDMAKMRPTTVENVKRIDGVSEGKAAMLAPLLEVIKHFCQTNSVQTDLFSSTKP

Take `CCc1c(N2CCN(C(=O)c3ncccc3O)CC2)c(=O)n2nc(C3=CCOCC3)nc2n1CC(=O)Nc1ccc(C(F)(F)F)cc1C` [Example 58, 2-(2-(3,6-dihydro-2H-pyran-4-yl)-5-ethyl-6-(4-(3-hydroxypicolinoyl)piperazin-1-yl)-7-oxo-[1,2,4]triazolo[1,5-a]pyrimidin-4(7H)-yl)-N-(2-methyl-4-(trifluoromethyl)phenyl)acetamide]: the antitumor response result in assay [1] (SW48 xenografts in nude mice) is “induced an antitumor response”. The T/C % value in assay [1] (day 18, SW48 xenografts in nude mice, p<0.05 vs vehicle) is recorded as −9%. The “tumor regression (mean tumor volume)” value in assay [1] (day 18, in the 4/7 surviving animals) is listed as −26%.

As for `CCc1c(N2CCN(C(=O)c3ncncc3O)CC2)c(=O)n2nc(C3=CCOCC3)nc2n1CC(=O)Nc1ccc(S(F)(F)(F)(F)F)cc1Cl` [Example 52, N-(2-chloro-4-(pentafluorosulfanyl)phenyl)-2-(2-(3,6-dihydro-2H-pyran-4-yl)-5-ethyl-6-(4-(5-hydroxypyrimidine-4-carbonyl)piperazin-1-yl)-7-oxo-[1,2,4]triazolo[1,5-a]pyrimidin-4(7H)-yl)acetamide], the IC50 in assay [2] came out at 40 nM. The GI50 in assay [3] (setting [5]) was 40 nM; in assay [4] (Homo sapiens), more than 10000 nM.

In the case of `CCc1c(N2CCN(C(=O)c3ncccc3O)CC2)c(=O)n2nc(C3=CCC(OC)CC3)nc2n1CC(=O)Nc1ccc(C(F)(F)F)nc1C` (racemic) [Example 26, rac-2-(5-ethyl-6-(4-(3-hydroxypicolinoyl)piperazin-1-yl)-2-(4-methoxycyclohex-1-en-1-yl)-7-oxo-[1,2,4]triazolo[1,5-a]pyrimidin-4(7H)-yl)-N-(2-methyl-6-(trifluoromethyl)pyridin-3-yl)acetamide], the 50% inhibitory concentration (IC50) in assay [2] came to 250 nM. Also, the GI50 in assay [3] (setting [5]) was 80 nM; in assay [4] (Homo sapiens), more than 10000 nM.

As to `CCc1c(N2CCN(C(=O)c3ncccc3O)CC2)c(=O)n2nc(-c3cccnc3)nc2n1CC(=O)Nc1ccc(C(F)(F)F)cc1C` [Example 76, 2-(5-ethyl-6-(4-(3-hydroxypicolinoyl)piperazin-1-yl)-7-oxo-2-(pyridin-3-yl)-[1,2,4]triazolo[1,5-a]pyrimidin-4(7H)-yl)-N-(2-methyl-4-(trifluoromethyl)phenyl)acetamide], the IC50 in assay [2] amounted to 80 nM. Moreover, the GI50 is 190 nM in assay [3] (setting [5]) and more than 10000 nM in assay [4] (Homo sapiens).

In the case of `CCc1c(N2CCN(C(=O)c3ncnc(C)c3O)[C@H](C)[C@@H]2C)c(=O)n2nc(C3=CCOCC3)nc2n1CC(=O)Nc1ccc(C(F)(F)F)cc1Cl` (single isomer, unassigned) [Example 122], the IC50 in assay [2] amounted to 150 nM. For the same compound, the GI50 in assay [3] (read-out: Proliferation Assay SW48 (GI50), SW48 cell line, geometric means of at least 2 determinations) is 100 nM; in assay [4] (DLD1-WRN-KO cell line, geometric means of at least 2 determinations) it was more than 10000 nM.

Take `CCc1c(N2CCN(C(=O)c3ncncc3O)CC2)c(=O)n2nc(C3=CCOCC3)nc2n1CC(=O)Nc1ccc(C(F)(F)F)cc1C` [Example 64, 2-(2-(3,6-dihydro-2H-pyran-4-yl)-5-ethyl-6-(4-(5-hydroxypyrimidine-4-carbonyl)piperazin-1-yl)-7-oxo-[1,2,4]triazolo[1,5-a]pyrimidin-4(7H)-yl)-N-(2-methyl-4-(trifluoromethyl)phenyl)acetamide]: the 50% inhibitory concentration (IC50) in assay [2] is 90 nM. The figures for the GI50 in assay [3] (setting [5]) and in assay [4] (Homo sapiens) were 480 nM and more than 10000 nM, respectively.

Turning to `CCc1c(N2CCN(C(=O)c3ncnc(C)c3O)CC2)c(=O)n2nc(C3=CCCCO3)nc2n1CC(=O)Nc1ccc(C(F)(F)F)nc1Cl` [Example 28, N-(2-chloro-6-(trifluoromethyl)pyridin-3-yl)-2-(2-(3,4-dihydro-2H-pyran-6-yl)-5-ethyl-6-(4-(5-hydroxy-6-methylpyrimidine-4-carbonyl)piperazin-1-yl)-7-oxo-[1,2,4]triazolo[1,5-a]pyrimidin-4(7H)-yl)acetamide], in assay [2], the IC50 was 130 nM. For the same compound, the GI50 in assay [3] (setting [5]) was 100 nM; in assay [4] (Homo sapiens) it was more than 10000 nM.

Take `CCc1c(N2CCN(C(=O)c3ncccc3O)CC2)c(=O)n2nc(N3CCC(N(C)CC(F)F)CC3)nc2n1CC(=O)Nc1ccc(C(F)(F)F)nc1Cl` [Example 20, N-(2-chloro-6-(trifluoromethyl)pyridin-3-yl)-2-(2-(4-((2,2-difluoroethyl)(methyl)amino)piperidin-1-yl)-5-ethyl-6-(4-(3-hydroxypicolinoyl)piperazin-1-yl)-7-oxo-[1,2,4]triazolo[1,5-a]pyrimidin-4(7H)-yl)acetamide]: the 50% inhibitory concentration (IC50) in assay [2] was 310 nM. Also, the GI50 in assay [3] (setting [5]) is 100 nM; in assay [4] (Homo sapiens), more than 10000 nM.

Turning to `CCc1c(N2CCN(C(=O)c3ncccc3O)CC2)c(=O)n2nc(N3CCCC3)nc2n1CC(=O)Nc1ccc(C(F)(F)F)cc1C` [Example 17, 2-(5-ethyl-6-(4-(3-hydroxypicolinoyl)piperazin-1-yl)-7-oxo-2-(pyrrolidin-1-yl)-[1,2,4]triazolo[1,5-a]pyrimidin-4(7H)-yl)-N-(2-methyl-4-(trifluoromethyl)phenyl)acetamide], the half-maximal inhibitory concentration (IC50) in assay [2] stood at 140 nM. For the same compound, the GI50 was 240 nM in assay [3] (setting [5]) and more than 10000 nM in assay [4] (Homo sapiens).
